Like-named read-outs stand apart in the source and are kept apart here.
Tests used:
[1] = I = 0.15 M NaCl, T = 25 °C; cited from earlier work
[2] = pH‐potentiometric determination of ligand protonation constants; type: physicochemical; conditions: I = 1.00 M NaCl, T = 25 °C
Protocol: The equilibrium study of the PC2AM^nBu ligand has been started by determining the protonation constants in 0.15 M and 1.00 M NaCl ionic strength. (As the stability of the Sc(III) complex was determined in 1.00 M ionic strength, we had to perform the pH‐potentiometric titration of ligands using 1.00 M ionic strengths also.) The results of pH‐potentiometric measurement are shown in Table 1, where the corresponding data for 3,9‐PC2A,^[ [42] ^] PCTA ^[ [46] ^] and PC2AM‐NI ligands determined under identical conditions are also presented. Knowledge of the protonation constants defined by Eqn. 1 and 2 are essential for the calculation of the stability constants of the Sc(III) complexes:
(1) PC2AM^nBu^2−+nH^+⇌Hn(PC2AM^nBu)^−2+n (2) βn=HnPC2AM^nBu^−2+n/PC2AM^nBu^2−H^+^n
The protonation constants of the ligands, as well as the concentrations of the ligand stock solutions, were determined by pH‐potentiometric method using a Metrohm 785 DMP Titrino automatic titrator using a Metrohm 6.00234.100 combined glass electrode. The titrations were carried out in the pH range 1.75–11.80 and the pH electrode was calibrated by a two‐point calibration routine with the use of 0.05 M KH‐phthalate (pH = 4.005) and 0.01 M borax (pH = 9.177 buffers. The samples were stirred at 25 °C (±0.1 °C) and N2 gas bubbled into the system to ensure inert conditions and to eliminate the effect of the presence of CO2. For the calculation of [H^+] from the measured pH values, the method proposed by Irving et al. was applied.^[ [61] ^] For this, a 0.01 M HCl solution was titrated with the standardized NaOH solution in the presence of 0.15 M NaCl ionic strength at 25 °C. The differences between the measured (pHread) and calculated pH (‐log[H^+]) values were used to obtain the equilibrium H^+ concentration from the pHmeas values during the titrations. By fitting the resulting titration curves (pH – V (NaOH) data pairs) with the PSEQUAD program, the protonation constants of the ligands were determined.^[ [47] ^] The titration of the [Sc(PC2AM^nBu)]^+ with NaOH was performed with the same method by applying very similar conditions.

[3] = Time course of Sc(III) complex formation, 45Sc NMR; type: physicochemical; conditions: ‐log[H^+] = 1.28, 25 °C
Protocol: The time course of complex formation of PC2AM^nBu and PCTA ligands with Sc(III) ion was investigated by ^45Sc‐NMR under acidic conditions (cSc = cligand = 10 mM and 9.5 mM, respectively, ‐log[H^+] = 1.28). The decrease of the narrow signal of the free Sc(III) ion was monitored as a function of time. […] The kinetic measurements of formation could be seen in Figures S18 and S19. The complexation for the [Sc(PCTA)] chelate at pH = 1.28 and 25 °C took about 300 minutes to reach the equilibrium, whereas for the [Sc(PC2AM^nBu)]^+ complex it took a bit longer time under these conditions. (In order to confirm that the samples reached the equilibrium, we have repeated the ^45Sc NMR study for both samples after a few days when the signal of the free Sc(III) was absent, and only the signals of the complexes were detected.) The detailed study of formation kinetics was not our aim in this project. One can expect that the reaction follows the well‐known mechanisms of M(III) ‐ macrocyclic APC systems ^[ [54] ^]: formation of a protonated intermediate in fast pre‐equilibrium followed by a slow, base‐catalyzed deprotonation/structural rearrangement as a rate‐determining step. The intermediate is named also as “out‐of‐cage complex.”^[ [55] ^] Our experimental curves are likely in accordance with this mechanism. Fitting the measured data for the free Sc(III) signals by a monoexponential function gives the rate constant k obs = (1.04 ± 0 .05) x 10^−4 s^−1 for the [Sc(PC2AM^nBu)]^+ and k obs = (2.51 ± 0.12) x 10^−4 s^−1 for the [Sc(PCTA)] complex. […] The relatively fast complex formation at the given acidic condition is very encouraging for the Sc(III) labeling experiments.
^45Sc NMR measurements (97 MHz) were performed on a Bruker DRX 400 (9.4 T) spectrometer equipped with a Bruker VT‐1000 thermocontroller and a BB inverse z‐gradient probe (5 mm). The kinetic experiments were performed at 25 °C in aqueous solution, using D2O (10% v/v) as a lock solvent. Typical parameters for 45Sc NMR measurements were used: TD = 32k, p1 = 15.6 µs (90°), d 1 = 0.1 s. The formation reactions of the [Sc(PC2AM^nBu)]^+ and [Sc(PCTA)] complexes were monitored by ^45Sc NMR spectroscopy in two sample types: one containing 10.0 mM PC2AM^nBu and ScCl3 / 9.5 mM […] and ScCl3. In both cases, the total acid concentration corresponded to a pH of 1.28. Obtained monoexponential curves (signal area of free Sc(III) vs. time) were fitted using Scientist software ^[ [62] ^] to determine the formation rate.

[4] = Fluoride binding of [Sc(PC2AM^nBu)]^+ (ternary complex stability), 19F NMR titration; type: physicochemical; conditions: stability constant of the ternary fluoride complex, 19F NMR, pH = 5.2, I = 0.15 M NaCl, 25 °C
Text: Sc(III) is a typical “hard” cation, forming very stable complexes with fluoride anion.^[ [51], [52] ^] […] The formation of the ternary [Sc(PC2AM^nBu)(F)] complex can be followed by […], as two sets of signals (Δδ ∼ 20 Hz) indicate a slow exchange regime on the […] time scale (Figure S16). Measuring the intensities of the free and bound fluoride signals, the stability constant (Eqn. 6) of the [Sc(PC2AM^nBu)(F)] complex (Eqn. 5) can be calculated (Table S1).
(5) [Sc(PC2AM^nBu)]^++F^−⇌[Sc(PC2AM^nBu)(F)] (6) KScLF=ScPC2AM^nBuF/[ScPC2AM^nBu^+]F^−
Table S1. Summary of data used for the calculation of the stability constant, log K[Sc(PC2AM^nBu)(F)] by titration of 0.005M [Sc(PC2AM^nBu)]^+ parent complex with different amounts of F^- (0.005 - 0.01 M concentration range) followed by 376.4 MHz ^19F NMR (I = 0.15 M NaCl, c Sc(PC2AM^nBu) = 5 mM, pH=5.20, T= 298 K).

Row | SMILES | log K 1 ^H [1] | log K 2 ^H [1] | log K 3 ^H [1] | log K 4 ^H [1] | log β 2 ^H [1] | log K 1 ^H [2] | log K 2 ^H [2] | log K 3 ^H [2] | log K 4 ^H [2] | log β 2 ^H [2] | half‐life of the complex formation reaction (t 1/2 = ln2 / k obs) [3] | log K ScLF [4]
1 | O=C(O)CN1CCN(CC(=O)O)Cc2cccc(n2)CN(CC(=O)O)CC1 [PCTA, reference compound] | 9.97 | 6.73 | 3.22 | 1.40 | 16.70 | 9.22(6) | 7.30(8) | 4.09 (9) | 1.42(8) | 16.52 |  | 
2 | CCCCNC(=O)CN1CCN(CC(=O)[O-])Cc2cccc(n2)CN(CC(=O)[O-])CC1.[Sc+3] [[Sc(PC2AM^nBu)]^+] |  |  |  |  |  |  |  |  |  |  | 1.83 h | 2.5(2)

Reference: article PMC12731536, “Sc(III) Complexes of Pyclen Derivative Ligands as Probes for Hypoxia: Synthesis, Chemical Characterization, ^44Sc‐Radiolabeling, and Preclinical Assessment” (Chemistry (Weinheim an Der Bergstrasse, Germany), 2025)
